Experimental data taken from patent US12357570B2, “Chemoembolization agents” (BRUIN BIOSCIENCES, INC., priority 2017, dated 2025).
“Also recorded” adds a separate entry of the source.

Tests used:
[1] = Loading of non-encapsulated drug on DC Beads (residual unloaded drug by HPLC); type: physicochemical; settings: room temperature
Description: A drug-loading solution was prepared by adding sterile water to a vial of doxorubicin hydrochloride powder (Pharmacia & Upjohn, Kalamazoo, MI) to produce a solution of the desired concentration (for the loading experiment 25 mg Doxorubicin salt was dissolved in 5 mL water. 0.043 mmol/5 mL=8.6 mM solution). 1 mL volume of beads was aspirated via syringe, purged of as much liquid as possible, then an aqueous solution Doxorubicin (5 mL, 5 mg/mL concentration) aspirated and mixed with beads. The mixture was dispensed into a sealed vial and left to load at room temperature without agitation and left for a time until the red coloration in the solution had diminished and the beads had taken on a red color. This time was dependent on drug loading solution concentration and bead size.
The extent of drug loading was calculated from the residual unloaded drug content determined by UV/visible HPLC with DAD detector at 220 and 254 nm (Agilent 1100 Series). Estimated uptake of Doxorubicin was approximately 90% loading after 25 hours, and approximately 99% loading after 91 hours.
Sunitinib was loaded to DC Beads® using a procedure similar to that for Example 6. Estimated uptake of Sunitinib was approximately 99% after 6 hours and >99.8% after 24 hours at room temperature.

[2] = after a 24 hour period; previous observations; cited from earlier work
[3] = Loading of liposome-encapsulated drug on DC Beads (supernatant HPLC/MS); type: physicochemical; settings: for loading on DC Beads: cationic liposomes DOTAP/DOPC; for amount loaded: start of elution, liposomal drug on DC Beads
Description: (§1) This was accomplished via a two-step process: 1) Sorafenib was made water-soluble by encapsulation into an encapsulating agent that is positively charged on its outer surface (cationic liposomes) and 2) association of a plurality of the loaded encapsulating agents so obtained onto microspheres (DC Beads®). In order to accomplish this, Sorafenib para-toluene sulfonate salt (9.1 mg), DOTAP (1,2-dioleoyl-3-trimethylammonium-propane chloride salt, 100 mg) and DOPC (1,2-dioleoyl-sn-glycero-3-phosphocholine, 101.1 mg) were dissolved in ethanol (0.5 mL) and this solution was added dropwise to a 10% trehalose solution (9 mL) under stirring. The resulting viscous emulsion was stirred at room temperature for 5 minutes and then filtered through a manual liposomal extruder using a 200 nm polycarbonate membrane. The resulting unilamellar liposomal solution was lyophilized overnight to yield a white solid, which was reconstituted in deionized water (1.82 mL) to yield a final Sorafenib concentration of 5 mg/mL. DC Beads® (2 mL, having about 200,000 beads with an average bead diameter of about 100-300 microns as measured by light scattering) were drained of as much liquid as possible and treated with the liposomal solution. The concentration of Sorafenib in the supernatant was measured over time by HPLC/MS. After approximately 46 hours, equilibrium was reached and loading of Sorafenib appeared to be approximately 52%. It is possible that saturation was reached and that more beads are needed to increase loading. For elution experiments, the liposomal solution with the DC Beads® was passed through a cotton filter, leaving the DC Beads® on the filter. PBS (1.0 M, pH 7.4) warmed to 37° C. was passed over the beads at 4 mL/min for 60 minutes. Four 40 mL vials were collected and analyzed by HPLC/MS/MS to determine the concentration of Sorafenib in each sample. Ten 3 mL vials were collected and analyzed by HPLC/MS/MS to establish the drug elution kinetics for Sorafenib.
This was accomplished via a two-step process: 1) Regorafenib (4.7229 mg) was made water-soluble by encapsulation into an encapsulating agent that is positively charged on its outer surface (cationic liposomes) and 2) association of a plurality of the loaded encapsulating agents so obtained onto microspheres. In short, Regorafenib (6.9 mg), DOTAP (1,2-dioleoyl-3-trimethylammonium-propane chloride salt, 100 mg) and DOPC (1,2-dioleoyl-sn-glycero-3-phosphocholine, 101.1 mg) were dissolved in ethanol (0.5 mL) and this solution was added dropwise to a 10% trehalose solution (9 mL) under stirring. […] The concentration of Regorafenib in the supernatant was measured over time by HPLC/MS. […] Four 40 mL vials were collected and analyzed by HPLC/MS/MS to determine the concentration of […] in each sample.

[4] = Elution of liposome-encapsulated drug from DC Beads with PBS pH 7.4 at 37° C.; type: physicochemical; settings: for Remaining drug to be eluted: after Fraction I (solvent-final)
Description: as §1, with “PBS (1.0 M, pH 7.4) warmed to 37° C. was passed over the beads at 4 mL/min for 60 minutes.” left out
This was accomplished via a two-step process: 1) Regorafenib (4.7229 mg) was made water-soluble by encapsulation into an encapsulating agent that is positively charged on its outer surface (cationic liposomes) and 2) association of a plurality of the loaded encapsulating agents so obtained onto microspheres. In short, Regorafenib (6.9 mg), DOTAP (1,2-dioleoyl-3-trimethylammonium-propane chloride salt, 100 mg) and DOPC (1,2-dioleoyl-sn-glycero-3-phosphocholine, 101.1 mg) were dissolved in ethanol (0.5 mL) and this solution was added dropwise to a 10% trehalose solution (9 mL) under stirring. The resulting viscous emulsion was stirred at room temperature for 5 minutes and then filtered through a manual liposomal extruder using a 200 nm polycarbonate membrane. The resulting unilamellar liposomal solution was lyophilized overnight to yield a white solid, which was reconstituted in deionized water (1.8 mL) to yield a final Regorafenib concentration of 5 mg/mL. DC Beads® (2 mL) were drained of as much liquid as possible and treated with the liposomal solution. The concentration of Regorafenib in the supernatant was measured over time by HPLC/MS. After approximately 92 hours, equilibrium was reached and loading of Regorafenib appeared to be approximately 25%. For elution experiments, the liposomal solution with the DC Beads® was passed through a cotton filter, leaving the DC Beads® on the filter. […] Four 40 mL vials were collected and analyzed by HPLC/MS/MS to determine the concentration of […] in each sample.

[5] = cited from earlier work
[6] = human, 400 mg twice daily, cited from earlier work
[7] = Fraction I (solvent-final), time 320 minutes

amount loaded [3] | % eluted ([4]; Fraction B, time 40 minutes) | Cumulative elution % ([4]; Fraction B, time 40 minutes) | amount eluted ([4]; Fraction B, time 40 minutes) | % eluted ([4]; Fraction C, time 80 minutes) | Cumulative elution % ([4]; Fraction C, time 80 minutes) | amount eluted ([4]; Fraction C, time 80 minutes) | % eluted ([4]; Fraction D, time 120 minutes) | Cumulative elution % ([4]; Fraction D, time 120 minutes) | amount eluted ([4]; Fraction D, time 120 minutes) | % eluted ([4]; Fraction E, time 160 minutes) | Cumulative elution % ([4]; Fraction E, time 160 minutes) | amount eluted ([4]; Fraction E, time 160 minutes) | % eluted ([4]; Fraction F, time 200 minutes) | Cumulative elution % ([4]; Fraction F, time 200 minutes) | amount eluted ([4]; Fraction F, time 200 minutes) | % eluted ([4]; Fraction G, time 240 minutes) | Cumulative elution % ([4]; Fraction G, time 240 minutes) | amount eluted ([4]; Fraction G, time 240 minutes) | % eluted ([4]; Fraction H, time 280 minutes) | SMILES | also measured
 |  |  |  |  |  |  |  |  |  |  |  |  |  |  |  |  |  |  |  | COc1cccc2c1C(=O)c1c(O)c3c(c(O)c1C2=O)C[C@@](O)(C(=O)CO)C[C@@H]3O[C@H]1C[C@H](N)[C@H](O)[C@H](C)O1 [Doxorubicin] | Estimated uptake (loading) on DC Beads ([1]; after 25 hours): approximately 90%; Estimated uptake (loading) on DC Beads ([1]; after 91 hours): approximately 99%; fraction of drug eluted [2]: about 4%
2.1931 mg | 68.3963% | 68.3963% | 1.5 mg | 2.3255% | 70.7218% | 0.051 mg | 0.0109% | 70.7327% | 0.00024 mg | 0.00286% | 70.7356% | 0.0000628 mg | 0.0017% | 70.7373% | 0.0000372 mg | 0.0017% | 70.739% | 0.0000364 mg | 0.0049% | CNC(=O)c1cc(Oc2ccc(NC(=O)Nc3ccc(Cl)c(C(F)(F)F)c3)c(F)c2)ccn1 [Regorafenib] | loading on DC Beads ([3]; equilibrium after approximately 92 hours): approximately 25%; Cumulative elution % ([4]; Fraction H, time 280 minutes): 70.7439%; amount eluted ([4]; Fraction H, time 280 minutes): 0.000108 mg; % eluted [4, 7]: 3.5384%; Cumulative elution % [4, 7]: 74.2823%; amount eluted [4, 7]: 0.0776 mg; Remaining drug to be eluted [4]: 0.5723 mg; water solubility [5]: poor
4.7229 mg | 65.4259% | 65.4259% | 3.09 mg | 10.6714% | 76.0973% | 0.504 mg | 0.6479% | 76.7452% | 0.0306 mg | 0.6924% | 77.4376% | 0.0327 mg | 0.1912% | 77.6287% | 0.00903 mg | 0.1188% | 77.7475% | 0.00561 mg | 0.00648% | CNC(=O)c1cc(Oc2ccc(NC(=O)Nc3ccc(Cl)c(C(F)(F)F)c3)cc2)ccn1 [Sorafenib, 4-{4-[3-(4-chloro-3-trifluoro-phenyl)-ureido]-phenoxyl}-pyridine-2-carboxylic methylamine] | loading on DC Beads ([3]; equilibrium after approximately 46 hours): approximately 52%; Cumulative elution % ([4]; Fraction H, time 280 minutes): 77.754%; amount eluted ([4]; Fraction H, time 280 minutes): 0.000306 mg; % eluted [4, 7]: 4.9292%; Cumulative elution % [4, 7]: 82.68%; amount eluted [4, 7]: 0.2328 mg; Remaining drug to be eluted [4]: 0.8179 mg; concentration released in smaller increments thereafter ([4]; after initial release): 0.2 µM; drug remained on the beads ([4]; after the last elution time point): Approximately 17%; concentration released initially ([4]; initial release from beads): 4 to 20 µM; fraction of loaded drug eluted ([4]; over 40 minutes): approximately 2%; mean t½ [6]: 27.4 h; Cmax ([6]; read-out: Cmax in plasma): ~11.6 µM; solubility in alcohol ([5]; alcohol): slightly soluble; solubility in polyethylene glycol 400 ([5]; polyethylene glycol 400): fully soluble; water solubility [5]: mostly insoluble; also recorded: very poor
